Reference: patent US5795876A, “Method of inhibiting vascular cell adhesion molecule-1 and treating chronic inflammatory diseases with 2, 6-di-alkyl-4-silyl-phenols” (Hoechst Marion Rousssel, Inc., priority 1997, dated 1998)
pIC50: −log10 of the molar value. Read-outs that look alike come from different tables or passages of the source.

Columns and labels:
VCAM-1 [1] = assay: Cell surface ELISA for VCAM-1 in human aortic smooth muscle cells (HASMC), cytokine-induced (interleukin-4); type: cell-based; settings: for inhibition at 50 µM: HASMC; for pIC50: HSMC, eight serial dilutions, basal expression subtracted
Description: (§1) Cell Surface ELISA for VCAM-1/ICAM-1
(§2) Proliferating human umbilical vein endothelial cells (HUVEC) or human aortic smooth muscle cells (HASMC) from Clonetics (San Diego, Calif.) were plated onto 96-well plates in 100 μL medium per well at 20,000 cells per cm^2. The cultures were maintained in growth medium (EGM or SMGM2, Clonetics, San Diego, Calif.) for two days prior to addition of cytokines or drugs. Cytokines plus or minus compounds were added for 20 to 24 hours prior to analysis for adhesion molecule levels. Tumor necrosis factor (Genzyme, Cambridge, Mass.) was added to cultures at 500-1000 units/mL. Interleukin-4 (GIBCO-BRL, Gaithersburg, Md.) was added to cultures at 100-200 pg/mL. (Additions were made by transferring 100 μL of cytokines plus compounds serially diluted on a separate 96-well plate into the plates containing cells. The medium on the cultures was not exchanged prior to addition of effectors). The culture medium was removed, and the monolayers were washed twice with Hanks buffered saline solution (HBSS) at room temperature. The primary antibody (anti-human VCAM-1 from Upstate Biotechnology, Inc., Lake Placid, N.Y. or anti-human ICAM-1 from Immunotech, Inc., Westbrook, Me.) was added to each well (1 μg/mL in HBSS plus 5% newborn calf serum, GIBCO-BRL, Gaithersburg, Md.) and incubated at 37° C. for 1 hr. The wells were washed twice with HBSS, then 100 μL of a 1/1000 dilution of goat anti-mouse IgG conjugated to horse radish peroxidase (BioRad, Hercules, Calif.) in HBSS plus 5% newborn calf serum was added to each well and incubated for 1 hr at 37° C. The wells were washed three times with HBSS, then 100 μL of TMB substrate (BioRad, Hercules, Calif.) was added to each well. The reaction was stopped after blue color developed by addition of 50 μL of 1N H2 SO4. Absorbance is measured at 450 nm with a plate reader. IC50 values were determined from curves of absorbance values obtained from serial dilutions of compounds (dissolved in dimethyl sulfoxide).
(§3) The IC50 value is defined as the drug concentration that inhibits the cytokine-induced adhesion molecule expression by 50%. Maximal values for adhesion molecule expression in cytokine-induced cultures was subtracted from the basal level of adhesion molecule expression (minus cytokines) in the cultures to determine the level of induction. […] Each drug concentration was tested in quadruplicate wells. Single point tests of compounds at 50 μM were assayed as described for IC50 determinations, except that the data represent the level of inhibition without correction for basal expression. (Basal adhesion molecule expression was 10-20% of the total induced expression).
Table 1 summarizes the ability of various compounds of this invention to inhibit VCAM-1 using human aortic smooth muscle cells (HASMC). In these experiments, the cells were coincubated with interleukin-4 and the compounds listed about 20 hr before assaying cell surface VCAM-1 levels. Each column represents a separate experiment.
(§4) Table 3 illustrates the activity of selected compounds when eight serial dilutions of drug were tested against cytokine induction of VCAM-1 expression in both vascular endothelial and smooth muscle cells. Subtraction of basal VCAM-1 expression was also used in the calculation of IC50 values. Each compound was also tested in a similar manner for ICAM-1 inhibition. No inhibition of ICAM-1 was detected (up to 100 μM) in vascular smooth muscle cells.

VCAM-1 [2] = assay: Cell surface ELISA for VCAM-1 in human umbilical vein endothelial cells (HUVEC), cytokine-induced (tumor necrosis factor-alpha); type: cell-based; settings: for inhibition at 50 µM: read-out: VCAM-1 (% inh. 50 μM); for pIC50: eight serial dilutions, basal expression subtracted
Description: as §1, §2, §3
(§5) In these experiments, the cells were coincubated with tumor necrosis factor-alpha along with the indicated compounds about 20 to 24 hr before assaying cell surface adhesion molecule expression.
as §4

ICAM-1 [3] = assay: Cell surface ELISA for ICAM-1 in human umbilical vein endothelial cells (HUVEC), cytokine-induced (tumor necrosis factor-alpha); type: cell-based; settings: for inhibition at 50 µM: Homo sapiens, HUVEC, read-out: ICAM-1 (% inh. 50 μM)
Description: as §1, §2, §3, §5, §4

VCAM-1 [4] = assay: In vivo inhibition of LPS-induced VCAM-1 upregulation in rabbit aorta (immunohistochemistry); design: species or system New Zealand white rabbits; settings: 0.4% in diet for three weeks; LPS 40 μg/animal i.v.; aorta 4 hr after LPS; when adequately accumulated
Text: FIG. 1 illustrates the effect of 2,6-di-t-butyl-4-[(dimethylphenylsilyl)methylthio]phenol (MDL 29,353) on LPS induced VCAM-1 expression in rabbit aorta in vivo. Data are expressed as the percent of the aortic surface endothelium expressing VCAM-1 as measured by immunostaining with an anti-rabbit VCAM-1 antibody.
In Vivo Inhibition of VCAM-1 Upregulation by MDL 29,353 in Rabbit Aorta
New Zealand white rabbits were fed a diet of chow plus or minus 0.4% MDL 29,353 for three weeks prior to challenge with lipopolysaccharide (LPS, 40 μg/animal, i.v. ear vein). The aorta was removed from each animal 4 hr after LPS injection and rinsed briefly in phosphate buffered saline. VCAM-1 was immunohistochemistry was performed by incubating the tissues with RB1/9 antibody (mouse anti-rabbit VCAM-1) at 4° C. overnight. The bound RB1/9 was detected using a biotinylated goat anti-mouse secondary antibody (60 min, RT). VCAM-1 staining was accomplished by addition of streptavidin-alkaline phosphatase conjugate (30 min, RT) followed by an incubation with BT Red (Biotec, 10, RT). Images of the stained tissues were captured using an image analysis system for determination of the percentages of the aortic endothelium showing immunoreactivity with anti-VCAM antibody.

[5] = tested on: human umbilical vein endothelial cells (HUVEC); assay: Loss of HUVEC adherence to the tissue culture surface (microscope); type: cell-based; settings: vascular endothelial cells; 50 and 100 μM; observed with a microscope
VCAM-1 [6] = settings: vascular endothelial cells; cited from earlier work
ICAM-1 [7] = settings: vascular endothelial cells; cited from earlier work
[8] = 20 h, read-out: HSMC-1 (% inh. 50 μM) VCAM-1
[9] = 20 h, read-out: HSMC-2 (% inh. 50 μM) VCAM-1
[10] = 20 h, read-out: HSMC-3 (% inh. 50 μM) VCAM-1
[11] = HSMC-1 experiment, 50 μM, interleukin-4, about 20 hr, no correction for basal expression, read-out: HSMC-1 (% inh. 50 μM) VCAM-1
[12] = HSMC-2 experiment, 50 μM, interleukin-4, about 20 hr, no correction for basal expression, read-out: HSMC-2 (% inh. 50 μM) VCAM-1
[13] = HSMC-3 experiment, 50 μM, interleukin-4, about 20 hr, no correction for basal expression, read-out: HSMC-3 (% inh. 50 μM) VCAM-1
[14] = average of HSMC-1, HSMC-2, HSMC-3, 50 μM, read-out: VCAM-1 (Avg.) % inh.
[15] = 50 μM, TNF-alpha, 20 to 24 hr, average of two runs
[16] = 50 μM, TNF-alpha, 20 to 24 hr, average of three runs

Structure (SMILES) | inhibition at 50 µM (VCAM-1 [1]; [8]) | inhibition at 50 µM (VCAM-1 [1]; [9]) | inhibition at 50 µM (VCAM-1 [1]; [10]) | inhibition at 50 µM (VCAM-1 [1]; read-out: VCAM-1 (Avg.) % inh.) | inhibition at 50 µM (VCAM-1 [2]) | inhibition at 50 µM (VCAM-1 [1]; [11]) | inhibition at 50 µM (VCAM-1 [1]; [12]) | inhibition at 50 µM (VCAM-1 [1]; [13]) | inhibition at 50 µM (VCAM-1 [1]; [14]) | pIC50 (VCAM-1 [1]) | inhibition at 50 µM (VCAM-1 [2]; [16]) | pIC50 (VCAM-1 [2]) | inhibition at 50 µM (ICAM-1 [3]) | other results
CC(C)(C)c1cc(SC[Si](C)(C)C)cc(C(C)(C)C)c1O [MDL 28,235, 2,6-Di-t-butyl-4-[(trimethylsilyl)methylthio]phenol] | 7.8% | 18% | 42% | 22.6% | 4.3% |  |  |  |  |  |  |  |  | 
CC(C)(C)c1cc(SC[Si](C)(C)c2ccccc2)cc(C(C)(C)C)c1O [MDL 29,353, 2,6-Di-t-butyl-4-[(dimethylphenylsilyl)methylthio]phenol] |  |  |  |  |  | 58% | 60% | 46% | 54.7% | 5.00 | 8.7% | 4.72 |  | inhibition at 50 µM (ICAM-1 [3]; [15]): 6%; Inhibition of LPS induced VCAM-1 expression in rabbit aortic endothelium (FIG. 1) (VCAM-1 [4]): can inhibit the LPS induced level of VCAM-1 expression in rabbit aortic endothelium
Cc1cc(OC[Si](C)(C)c2ccccc2)cc(C)c1O [MDL 103,719, 2,6-Dimethyl-4-[(dimethylphenylsilyl)methyloxy]phenol] |  | 49% | 42% | 45.5% | 17% |  |  |  |  |  |  |  | 77% | 
CC(C)(C)c1cc(OC[Si](C)(C)c2ccccc2)cc(C(C)(C)C)c1O [MDL 103,902, 2,6-Di-t-butyl-4-[(dimethylphenylsilyl)methyloxy]phenol] |  |  |  |  |  | 49% | 60% | 43% | 50.7% | 5.30 | 25.3% | 4.96 |  | Inhibition of ICAM-1 expression in vascular endothelial cells (ICAM-1 [3]; 50 and 100 μM, could be accounted for by loss of cell adherence): significant inhibition of ICAM-1 expression; inhibition at 50 µM (ICAM-1 [3]; [15]): 39%; Cell adherence to the tissue culture surface [5]: loss of cell adherence
CC(C)(C)c1cc(OC[Si](C)(C)c2ccc(Cl)cc2)cc(C(C)(C)C)c1O [MDL 104,280, 2,6-Di-t-butyl-4-[(4-chlorophenyldimethylsilyl)methyloxy]phenol] | 54.7% | 63% | 44% | 53.9% | 27.3% |  |  |  |  |  |  |  | 22% | 
Cc1cc(SC[Si](C)(C)c2ccccc2)cc(C(C)(C)C)c1O [MDL 104,518, 2-t-butyl-6-methyl-4-[(dimethylphenylsilyl)methylthio]phenol] | 4.4% | 47% | 26% | 25.8% |  |  |  |  |  |  |  |  | 78% | 
COc1ccc([Si](C)(C)COc2cc(C(C)(C)C)c(O)c(C(C)(C)C)c2)cc1 [MDL 105,074, 2,6-Di-t-butyl-4-[(dimethyl-4-methoxyphenylsilyl)methyloxy]phenol] |  |  |  |  |  | 28.3% | 52% | 47% | 42.4% | 4.40 | 20% | 4.92 |  | 
CC(=O)N[C@@H](CS)C(=O)O [N-acetylcysteine] |  |  |  |  |  |  |  |  |  |  |  |  |  | Inhibition of cytokine-induced expression of VCAM-1 (VCAM-1 [6]): inhibit cytokine-induced expression of VCAM-1; Inhibition of cytokine-induced expression of ICAM-1 (ICAM-1 [7]): not ICAM-1
S=C(S)N1CCCC1 [pyrollidine dithiocarbamate] |  |  |  |  |  |  |  |  |  |  |  |  |  | Inhibition of cytokine-induced expression of VCAM-1 (VCAM-1 [6]): inhibit cytokine-induced expression of VCAM-1; Inhibition of cytokine-induced expression of ICAM-1 (ICAM-1 [7]): not ICAM-1
